From ChEMBL document CHEMBL1201862, “PubChem BioAssay data set” (2004)
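A five-concentration, 48-hour dose response in 96-well plates underlies each endpoint, interpolated linearly between surrounding concentrations. GI50: concentration for 50% inhibition of growth.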 Calls of active or inactive are those of the source. Cut-off read from the data, not from the text of the source: active = GI50 up to about 1.1 µM and inactive = higher.

How the values were obtained:
Test in all cases: inhibition of tumour cell growth, NCI panel, 48 h
HOP-92 = test system: HOP-92
HCC 2998 = test system: HCC 2998
HCT-116 = test system: HCT-116
SF-295 = test system: SF-295
SNB-19 = test system: SNB-19
PC-3 = test system: PC-3
DU-145 = test system: DU-145
U-251 = test system: U-251
SN12C = test system: SN12C
SF-539 = test system: SF-539
UACC-62 = test system: UACC-62
SW-620 = test system: SW-620
CAKI-1 = test system: CAKI-1
RPMI-8226 = test system: RPMI-8226
M14 = test system: M14
SNB-75 = test system: SNB-75
SF-268 = test system: SF-268
SK-MEL-5 = test system: SK-MEL-5
K562 = test system: K562
SR = test system: SR

Measured: GI50

CC(C)(C)c1ccc(OCC(=O)O)c(Cl)c1
inactive: HOP-92 > 100 µM | HCC 2998 > 100 µM | HCT-116 > 100 µM | SF-295 > 100 µM | SNB-19 > 100 µM | PC-3 > 100 µM | DU-145 > 100 µM | U-251 > 100 µM | SN12C > 100 µM | SF-539 > 100 µM | UACC-62 > 100 µM | SW-620 > 100 µM | CAKI-1 > 100 µM | RPMI-8226 > 100 µM | M14 > 100 µM | SNB-75 > 100 µM | SF-268 > 100 µM | SK-MEL-5 > 100 µM | K562 > 100 µM

CN1C2CCC1C(C(O)c1ccccc1[N+](=O)[O-])C(=O)C2 (stereo unspecified)
inactive: HCC 2998 > 100 µM | HCT-116 32.3 µM | SF-295 58.1 µM | SNB-19 > 100 µM | PC-3 45.7 µM | DU-145 28.3 µM | U-251 > 100 µM | SN12C 33.7 µM | SF-539 29.8 µM | UACC-62 > 100 µM | SW-620 45.2 µM | CAKI-1 38.4 µM | RPMI-8226 40.8 µM | M14 35.2 µM | SF-268 57.1 µM | SK-MEL-5 31.1 µM | K562 32.1 µM

COC(=O)C1=C(C(=O)OC)SC(=C2S[C@@H]3[C@@H]4C[C@H]([C@@H]3S2)[C@H]2C(=O)OC(=O)[C@@H]42)S1
inactive: HOP-92 > 100 µM | HCC 2998 > 100 µM | HCT-116 > 100 µM | SF-295 > 100 µM | SNB-19 > 100 µM | PC-3 > 100 µM | DU-145 > 100 µM | U-251 > 100 µM | SN12C > 100 µM | SF-539 > 100 µM | UACC-62 > 100 µM | SW-620 > 100 µM | CAKI-1 > 100 µM | RPMI-8226 > 100 µM | M14 > 100 µM | SF-268 > 100 µM | SK-MEL-5 > 100 µM | K562 > 100 µM

CC(C)N/C(=N\C#N)NS(=O)(=O)c1cnccc1Nc1ccc(Cl)cc1
inactive: HCC 2998 > 100 µM | HCT-116 > 100 µM | SF-295 > 100 µM | SNB-19 > 100 µM | PC-3 > 100 µM | DU-145 > 100 µM | U-251 > 100 µM | SN12C > 100 µM | UACC-62 > 100 µM | SW-620 > 100 µM | CAKI-1 > 100 µM | RPMI-8226 > 100 µM | M14 > 100 µM | SNB-75 > 100 µM | SF-268 > 100 µM | SK-MEL-5 > 100 µM | K562 > 100 µM

O=c1c2c(oc3ccccc13)-c1ccccc1OC2
inactive: HCC 2998 > 100 µM | HCT-116 29.9 µM | SF-295 > 100 µM | PC-3 > 100 µM | DU-145 53.3 µM | U-251 29 µM | SN12C 53.3 µM | SF-539 25.2 µM | UACC-62 > 100 µM | SW-620 67.8 µM | CAKI-1 26.1 µM | RPMI-8226 > 100 µM | M14 > 100 µM | SNB-75 16.7 µM | SF-268 57.9 µM | SK-MEL-5 44.8 µM | K562 > 100 µM

C=CC1(c2ccc3ccccc3c2)OCC(CC)(CC)CO1
inactive: HOP-92 23.4 µM | HCC 2998 20.9 µM | HCT-116 21.3 µM | SF-295 25.8 µM | SNB-19 17.3 µM | PC-3 26.9 µM | DU-145 45.1 µM | U-251 21.5 µM | SN12C 21.7 µM | SF-539 14.3 µM | UACC-62 24.8 µM | SW-620 14.9 µM | RPMI-8226 57.7 µM | M14 19.9 µM | SNB-75 47.6 µM | SF-268 33.3 µM | SK-MEL-5 18.5 µM | K562 25.1 µM

O=C(NCCCNCCCCNCCCNC(=O)C(F)(F)F)C(F)(F)F
inactive: HCC 2998 76.4 µM | HCT-116 > 100 µM | SF-295 > 100 µM | PC-3 > 100 µM | DU-145 > 100 µM | U-251 > 100 µM | SN12C 52.6 µM | SF-539 > 100 µM | UACC-62 > 100 µM | SW-620 54.8 µM | CAKI-1 20 µM | RPMI-8226 > 100 µM | M14 > 100 µM | SNB-75 > 100 µM | SF-268 > 100 µM | SK-MEL-5 > 100 µM

O=C(CCCN1CCC2(CC1)CC(=O)N(N1CCCCCC1)C2=O)c1ccc(F)cc1
inactive: HCT-116 55 µM | SF-295 27.6 µM | PC-3 > 100 µM | DU-145 > 100 µM | U-251 > 100 µM | SN12C > 100 µM | SF-539 > 100 µM | UACC-62 > 100 µM | SW-620 > 100 µM | SR 29.2 µM | CAKI-1 81.5 µM | RPMI-8226 58.5 µM | M14 33.6 µM | SNB-75 50.8 µM | SF-268 > 100 µM | SK-MEL-5 34.4 µM | K562 32.4 µM

O=C1/C(=C/c2ccc([N+](=O)[O-])cc2)Sc2scc(-c3cccc([N+](=O)[O-])c3)[n+]21
inactive: HOP-92 3.66 µM | HCC 2998 5.56 µM | HCT-116 4.6 µM | SF-295 14.2 µM | SNB-19 14.8 µM | PC-3 12.5 µM | DU-145 10.6 µM | U-251 10.7 µM | SN12C 4.1 µM | SF-539 2.37 µM | UACC-62 8.79 µM | SW-620 1.69 µM | CAKI-1 2.8 µM | RPMI-8226 3.01 µM | M14 3.78 µM | SNB-75 10.6 µM | SF-268 2.15 µM | SK-MEL-5 5.86 µM | K562 2.77 µM

CC(C)(C)c1cc(/C=C2/NC(=O)NC2=O)cc(C(C)(C)C)c1O
inactive: HOP-92 14.2 µM | HCT-116 14.1 µM | SF-295 14.8 µM | PC-3 7.46 µM | DU-145 15.6 µM | U-251 12.8 µM | SN12C 15.2 µM | SF-539 17 µM | UACC-62 16.5 µM | SW-620 18.3 µM | SR 12.8 µM | CAKI-1 16.8 µM | RPMI-8226 11.4 µM | SNB-75 12.3 µM | SF-268 14.3 µM | SK-MEL-5 13.7 µM | K562 13.2 µM

COC1(OC)CC(CO)(COc2cc(Cl)nc(N)n2)C1
inactive: HOP-92 > 100 µM | HCC 2998 > 100 µM | HCT-116 > 100 µM | SF-295 > 100 µM | SNB-19 > 100 µM | PC-3 > 100 µM | DU-145 > 100 µM | U-251 > 100 µM | SN12C > 100 µM | SF-539 > 100 µM | UACC-62 > 100 µM | SW-620 > 100 µM | CAKI-1 > 100 µM | SNB-75 > 100 µM | SF-268 > 100 µM | SK-MEL-5 > 100 µM | K562 > 100 µM

Cc1ccc(S(=O)(=O)N(CC(O)c2ccccc2)c2ccccc2F)cc1 (stereo unspecified)
inactive: HOP-92 10.2 µM | HCC 2998 24.2 µM | HCT-116 12.7 µM | SF-295 17.5 µM | SNB-19 18 µM | PC-3 15.5 µM | DU-145 16.1 µM | U-251 19.5 µM | SN12C 17.8 µM | SF-539 16.6 µM | UACC-62 12.2 µM | SW-620 19.6 µM | CAKI-1 15.7 µM | RPMI-8226 17 µM | M14 16.4 µM | SNB-75 12.3 µM | SF-268 15.9 µM | SK-MEL-5 15.9 µM | K562 17 µM

COc1cc(CNc2ccc3nc4n(c(=O)c3c2)CCCCC4)cc(OC)c1OC
inactive: HOP-92 76 µM | HCT-116 57.5 µM | SF-295 47.9 µM | PC-3 44.4 µM | DU-145 66.7 µM | U-251 > 100 µM | SN12C > 100 µM | SF-539 > 100 µM | UACC-62 43.6 µM | SW-620 > 100 µM | SR > 100 µM | CAKI-1 64 µM | RPMI-8226 72.3 µM | M14 94.4 µM | SNB-75 48.9 µM | SF-268 86.7 µM | SK-MEL-5 22.3 µM | K562 > 100 µM

Cc1ccc2ccc(=O)oc2c1
inactive: HOP-92 > 100 µM | HCT-116 > 100 µM | SF-295 > 100 µM | PC-3 > 100 µM | DU-145 > 100 µM | U-251 > 100 µM | SN12C > 100 µM | SF-539 > 100 µM | UACC-62 74.5 µM | SW-620 > 100 µM | SR > 100 µM | CAKI-1 > 100 µM | RPMI-8226 > 100 µM | M14 > 100 µM | SNB-75 > 100 µM | SF-268 > 100 µM | SK-MEL-5 > 100 µM | K562 > 100 µM

CN(C)/C=C/c1ccnc2c1C(=O)c1ccccc1C2=O
inactive: HOP-92 31.8 µM | HCC 2998 7.64 µM | HCT-116 3.22 µM | SF-295 4.56 µM | SNB-19 5.89 µM | PC-3 8 µM | DU-145 1.73 µM | U-251 15.2 µM | SN12C 5.2 µM | SF-539 12.9 µM | UACC-62 1.38 µM | SW-620 3.21 µM | CAKI-1 16.3 µM | RPMI-8226 3.48 µM | M14 1.92 µM | SNB-75 5.33 µM | SF-268 13.6 µM | SK-MEL-5 1.28 µM | K562 2.45 µM
